# Results from patent publication US20220193205A1, “METHODS OF TREATING CANCER” (Foghorn Therapeutics Inc., priority 2019, published 2022).
# Test system: ATRX null/ALT+ osteosarcoma cell line SAOS2
# Test: Cell viability by CellTiter-Glo after siRNA delivery
# Format: cell-based
# Settings: compared to negative control siRNA, FIG. 3
# Method: Procedure: SAOS2 cell line was seeded in 100 μL of media in 96-well plates (Corning 3904) excluding edge wells at the following density of 10000 cells per well. SOAS2 cells were seeded the day prior to transduction. Custom Stealth siRNA and Negative Control siRNA were ordered from ThermoFisher. The procedure for siRNA delivery was conducted based on the manufacturer's recommendation. The SMARCAL1 targeting siRNA sequence is: […] (SEQ ID NO: 356).
# Cell viability was assayed using CellTiter-Glo (Promega G7572) at 100 μL per well. Luminescence was read using PerkinElmer EnVision 2105. Values were normalized to the average values from the negative control sgRNAs. Experiments were performed three times. Shown are the triplicate results of one representative experiment. Two tailed, type 3 Student's t-test was performed to determine statistical significance, which was conducted on Microsoft Excel (Microsoft).
sequence,measurement,value
"UUUCACAGAGAAAUGCUUAUGCAGG (siRNA; commercial Stealth siRNA, chemistry not given here, further chemistry not given here; listed as Homo sapiens) [siRNA targeting SMARCAL-1, Custom Stealth siRNA targeting SMARCAL1, ordered from ThermoFisher]",cell viability,decreased viability
